A short description of one series: Blood kinetics. Format: in vivo, dog (male beagle). Conditions: 10 mg/kg, plasma; for Cmax / half-life: beagle dog; for Cmax: HPLC; for bioavailability: dog, po, read-out: Extent of Bioavailability; for half-life: estimated from intravenous administration. As for the experimental part:
Evaluation Example 7 (Blood kinetics)
For the experiment, male beagle dogs were employed. A test drug was intravenously or orally administered in a dose of 10 mg/kg. Blood samples were collected at 0.25, 0.5, 1, 2, 4, 6 and 24 hours after administering the test drug, and the samples were centrifuged to separate plasma, for which a plasma level of the test drug was determined by HPLC. Half-life of the test drug in blood was estimated from the results at the intravenous administration. An extent of bioavailability is expressed as a rate of AUC at the oral administration to AUC at the intravenous administration.

The subject of series [1] is reverse tolerance development to methamphetamine (stereotyped behavior). Briefly: Effect on reverse tolerance development due to repetitive administration of methamphetamine. Format: in vivo, rat (male Std:Wistar(ST)). Conditions: rat. As to the method:
Evaluation Example 6 (Effect to reverse tolerance development due to repetitive administration of methamphetamine) For the experiment, male Std:Wistar(ST) rat (Nippon SLC) aged 5 weeks were used. A test drug, the compound of formula (IV) described in JP-A 7-252219 or the compound of formula (V) described in JP-A 9-40667 was dissolved in purified water or 0.5% C.M.C./saline. Methamphetamine (mAMP) was dissolved in saline. Dosage volume was 1 mL/kg body weight.
The drugs were repetitively administered for 10 days with a regimen that to a rat, a test drug was orally or intraperitoneally administered and after 60 min mAMP was intraperitoneally administered in a dose of 2 mg/kg. To a normal group, solvent alone was administered in place of the combination of the test drug and mAMP. To a control group, solvent was orally or intraperitoneally administered, and then intraperitoneally mAMP was additionally administered.
After the repetitive administration, there was provided a withdrawal period for 7 days during which the test drug or mAMP was not administered. After the withdrawal, the test drug was discontinued and mAMP was administered in a dose of 2 mg/kg, and then stereotyped behavior of the animal was observed.
After administering mAMP, stereotyped behavior was rated in accordance with the following scale, for 1 min every 10 min until 60 min.
The results are expressed as an inhibition (%) of reverse tolerance development calculated from the following equation, using a total score for six minutes: Inhibition of reverse tolerance development (%)=100-A […]
wherein A represents a value calculated from the following equation:
A=[{(Score for the test drug group)-(Score for the normal group)}/{(Score for the control group)-(Score for the normal group)}]×100

A short description of series [2]: Safety: simple acute toxicity for a mouse. Format: in vivo. As to the method:
Evaluation Example 8 (Safety)
For the experiment, male Std:ddY mice aged 5 weeks were used. The mice were weighed, and then calmed in an observation cage for more than 1 hour. To the mice, a test drug was orally administered in a dose of 300 mg/kg to observe them for general symptoms until 2 hours.

Series [3] relates to head weaving behavior induced by a receptor agonist SKF-10047. Kind of series: Persistence of anti-SKF effect (SKF-10047 4 hours after test drug). Format: in vivo, mouse (male ddY). The following applies: mouse, oral, SKF-10047 20 mg/kg s.c. 4 hours after test drug. As for the experimental part: Evaluation Example 5 (Persistence of anti-SKF effect) Procedure
Persistence of antipsychotic activity for a test drug was studied by means of head weaving behavior induced by a receptor agonist SKF-10047 for a mouse. For the experiment were used 10 male ddY mice aged 5 weeks (Nippon SLC) per a group. The mice were placed in a measuring cage and calmed 1 hour before the initiation of the test. To the mice was orally administered a test drug and after 4 hours was subcutaneously administered SKF-10047 in a dose of 20 mg/kg. After 20 min, head weaving was counted for 10 min.

In a further series the target is T1, D2 receptor (Rattus norvegicus, UniProt P61169).
T1 construct: from tissue; host or cells: rat cerebral striatal homogenate
T1 sequence (P61169 whole entry): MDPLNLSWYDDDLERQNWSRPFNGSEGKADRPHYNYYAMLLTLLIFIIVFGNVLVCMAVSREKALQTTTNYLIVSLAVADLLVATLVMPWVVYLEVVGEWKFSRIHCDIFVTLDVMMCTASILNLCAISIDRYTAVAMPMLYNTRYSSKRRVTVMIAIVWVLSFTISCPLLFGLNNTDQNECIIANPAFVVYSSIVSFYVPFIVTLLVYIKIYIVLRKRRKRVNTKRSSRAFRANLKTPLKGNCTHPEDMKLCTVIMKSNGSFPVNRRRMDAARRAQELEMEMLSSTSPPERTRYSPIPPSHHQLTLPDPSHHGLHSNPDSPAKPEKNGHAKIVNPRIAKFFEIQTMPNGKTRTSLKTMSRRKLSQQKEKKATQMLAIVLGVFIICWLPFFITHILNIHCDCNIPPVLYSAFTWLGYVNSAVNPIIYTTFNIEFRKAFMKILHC
Kind of series: Radioreceptor assay for D2 receptor (3H-spiperone, cerebral striatal homogenate). Format: binding. Conditions: read-out: Affinity for a receptor, Ki D2. As for the experimental part: Evaluation Example 2 (Radioreceptor assay for D2 receptor) ^3 H-spiperone (Amersham) and a test drug were incubated with a homogenate of rat cerebral striatal site as described in D. R. Burt et al., Proc.Natl.Acad.Sci.U.S.A. 72:4655 (1975), and Ki value was determined as described in the above r radioreceptor assay.

The next series addresses T2, σ1 receptor (Cavia porcellus, UniProt Q60492).
T2 construct: prepared from a whole brain of a guinea pig without cerebellum and medulla; from tissue; host or cells: P2 fraction of guinea pig whole brain without cerebellum and medulla
Briefly: Radioreceptor assay for a σ1 receptor (3H-(+)pentazocine binding, whole brain P2 fraction). The following applies: guinea pig brain P2 fraction, 3 nM 3H-(+)pentazocine, room temperature, 2 hours; read-out: Affinity for a receptor, Ki σ1.

The test system of series [4] is head weaving behavior induced by a σ-receptor agonist SKF-10047. Kind of series: Anti-SKF effect: inhibition of SKF-10047-induced head weaving. Format: in vivo, mouse (male ddY). The following applies: 1 h; mouse, oral treatment before 60 min; SKF-10047 20 mg/kg s.c. As for the experimental part:
Evaluation Example 3 (Anti-SKF effect)
Antipsychotic activity for a test drug was studied by means of head weaving behavior induced by a σ-receptor agonist SKF-10047 for a mouse. For the experiment were used 10 male ddY mice aged 5 weeks (Nippon SLC) per a group. The mice were placed in a measuring cage and calmed 1 hour before the initiation of the test. To the mice was orally administered a test drug and after 60 min was subcutaneously administered SKF-10047 in a dose of 20 mg/kg. After 20 min, head weaving was counted for 10 min.

Series [5] deals with head weaving behavior induced by phencyclidine (PCP). Briefly: Anti-PCP effect: inhibition of phencyclidine-induced head weaving. Format: in vivo, rat (male Wistar(ST)). Conditions: oral treatment before 60 min, PCP 7.5 mg/kg i.p.; for ED50: Rattus norvegicus, po, 1 h; for ED50 Anti-PCP: rat, 60 min. As for the experimental part: Evaluation Example 4 (Anti-PCP effect)
Antipsychotic activity for a test drug was studied by means of head weaving behavior induced by phencyclidine (PCP) for a rat. For the experiment were used male Wistar(ST) rats aged 4weeks (Nippon SLC). The rats were placed in a measuring cage and calmed 1 hour before the initiation of the test. To the rats was orally administered a test drug and after 60 min was intraperitoneally administered PCP in a dose of 7.5 mg/kg. After 20 min, head weaving was counted for 10 min. Efficacy of the drug was evaluated by determining an inhibition (%) compared with the control group from the average of the scores of the test-drug groups, and then estimating a ED50 value.

A further series deals with sigma receptor. Conditions: background; cited from earlier work.
The mark [6] stands for this setting: 300 mg/kg oral, observed until 2 hours.

Usually Cmax stands for the highest concentration seen after dosing. The term bioavailability denotes the share of a dose that reaches the circulation, judged against a reference dose that is usually intravenous. What is called half-life is the time needed for the level to fall by half in the phase considered. A word on the ED50: it is the dose that gives a 50% effect, or the effect in half of the subjects. High values mean weaker potency, low ones greater potency. In general, Ki refers to the dissociation constant of the complex between target and ligand, obtained from inhibition or displacement.

The structures appear in SMILES notation. A value given as a limit tells only on which side of the number the result lay.

T2 sequence (Q60492 whole entry): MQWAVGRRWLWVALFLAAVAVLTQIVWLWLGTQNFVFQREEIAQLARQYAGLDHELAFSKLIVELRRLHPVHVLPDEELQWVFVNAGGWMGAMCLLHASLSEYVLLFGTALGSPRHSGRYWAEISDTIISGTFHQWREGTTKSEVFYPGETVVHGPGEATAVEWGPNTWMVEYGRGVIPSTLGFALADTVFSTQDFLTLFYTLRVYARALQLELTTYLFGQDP

Regarding `COC1CCN(C[C@H]2CCN(c3ccc(Cl)cc3)C2=O)CC1` [Compd. of formula (V), reference compound], in the series “Blood kinetics”, the peak concentration (Cmax) is 460 ng/mL, the bioavailability is 64.3% and the half-life was 1.5 h. Further, the “Inhibition of reverse tolerance” value in series [1] (10.0 mg/kg intraperitoneal) is recorded as 81.7%. In series [1] (30.0 mg/kg intraperitoneal), the “Inhibition of reverse tolerance” value amounted to 87.8%. In addition, in series [2] (setting [6]), the Convulsion/Treatment is listed as 1/3 and the Death/Treatment was 0/3. In series [3], this compound registered a 50% effective dose (ED50) of 23.2 mg/kg.

On to `CCOCCN1CCN(CC2CCN(c3ccc(Cl)cc3)C2=O)CC1` (stereo not shown) [compound 8], for which the inhibition constant Ki was above 3.3 µM on D2 receptor and 0.014 µM at σ1 receptor. Further, the Convulsion/Treatment in series [2] (setting [6]) is 0/3. In addition, the Death/Treatment in [2] (in vivo, po, 300 mg/kg) is reported as 0/3.

On to `COCCN1CCN(CC2CCN(c3ccc(Cl)cc3)C2=O)CC1` (stereo not shown) [compound 2], for which the Ki on D2 receptor is above 3.3 µM; at σ1 receptor it was 0.085 µM. Further, the results for the ED50 in series [4] and in [5] were 2.1 mg/kg and 1.3 mg/kg, respectively. Also, the Convulsion/Treatment in series [2] (setting [6]) is 0/6. Moreover, the Death/Treatment in [2] (in vivo, po, 300 mg/kg) is recorded as 0/6.

Consider `CCCCN1CCN(CC2CCN(c3cccc(C(F)(F)F)c3)C2=O)CC1` (stereo not shown) [Compound of formula (IV), reference compound], for which the figures for the ED50 in [4], in [5] and in series [3] were 14 mg/kg, 11 mg/kg and above 100 mg/kg, respectively. The “Inhibition of reverse tolerance” value in series [1] (30.0 mg/kg intraperitoneal) is 92.9%. Moreover, the Convulsion/Treatment in [2] (setting [6]) is recorded as 5/5. Moreover, the Death/Treatment in series [2] (setting [6]) is 5/5.

On to `C#CCOCCN1CCN(CC2CCN(c3ccc(Cl)cc3)C2=O)CC1` (stereo not shown) [compound 10], for which the Ki was above 3.3 µM at D2 receptor and 0.01 µM on σ1 receptor.

For `COCCN1CCN(CC2CCN(c3cccc(Br)c3)C2=O)CC1` (stereo not shown) [compound 18], the Ki at D2 receptor was above 2.8 µM; on σ1 receptor, 0.0075 µM.

For the compound `COCCN1CCN(C[C@H]2CCN(c3ccc(Cl)cc3)C2=O)CC1` [compound 21], the Ki is above 3.9 µM at D2 receptor and 0.072 µM at σ1 receptor. For the same compound, the ED50 in series [4] came out at 0.77 mg/kg; in [5], 0.75 mg/kg; in series [3], 3.19 mg/kg. In “Blood kinetics”, this compound returned a maximum concentration (Cmax) of 1520 ng/mL. In addition, the bioavailability in the series “Blood kinetics” amounted to 83.1%. The half-life in the series “Blood kinetics” is 3.5 h. Moreover, the figures for the “Inhibition of reverse tolerance” value in series [1] (7.5 mg/kg oral) and in series [1] (15.0 mg/kg oral) were 81.0% and 93.9%, respectively. Further, the Convulsion/Treatment in series [2] (setting [6]) is reported as 0/4. Also, the Death/Treatment in [2] (setting [6]) is given as 0/4.

As to `COCCN1CCN(CC2CCN(c3ccc(Br)cc3)C2=O)CC1` (stereo not shown) [compound 16], the median effective dose (ED50) in series [4] amounted to 0.52 mg/kg; in series [5], 1.9 mg/kg. Moreover, the Convulsion/Treatment in series [2] (setting [6]) is reported as 0/5. In addition, the Death/Treatment in [2] (in vivo, po, 300 mg/kg) is 0/5.

Regarding `COCCN1CCN(C[C@H]2CCN(c3ccc(Cl)cc3)C2=O)CC1` [compound 37], the “ED50 Anti-PCP” value in series [5] is 1.15 mg/kg.

On to `COCCN1CCN(C[C@H]2CCN(c3ccc(Cl)cc3)C2=O)CC1` [compound 39], for which, in series [5], the “ED50 Anti-PCP” value stood at 1.08 mg/kg.

As to `COCCN1CCN(C[C@H]2CCN(c3ccc(Cl)cc3)C2=O)CC1` [compound 38], the “ED50 Anti-PCP” value in series [5] was 1.48 mg/kg.

Consider `C[C@@H]1CN(CCCn2c3ccccc3c3ccccc32)C[C@H](C)N1` [Rimcazole, reference compound], for which the Ki on D2 receptor came to 11.6 µM. For the same compound, the “affinity or specificity to a sigma receptor” value with sigma receptor is “inadequate affinity or specificity to a sigma receptor”.

The record behind these values is patent US5969138A, “Pyrrolidinone derivatives” (Mitsui Chemicals, Inc., priority 1996, dated 1999).
